This note sets out measurements from patent US20240287080A1 (IDEAYA Biosciences Inc., priority 2021, published 2024).

In the first test the target is T1, Pol theta (1-899) (Homo sapiens, UniProt O75417).
T1 construct: Pol theta (1-899) (5 nM) in assay buffer
T1 sequence (O75417 1-899): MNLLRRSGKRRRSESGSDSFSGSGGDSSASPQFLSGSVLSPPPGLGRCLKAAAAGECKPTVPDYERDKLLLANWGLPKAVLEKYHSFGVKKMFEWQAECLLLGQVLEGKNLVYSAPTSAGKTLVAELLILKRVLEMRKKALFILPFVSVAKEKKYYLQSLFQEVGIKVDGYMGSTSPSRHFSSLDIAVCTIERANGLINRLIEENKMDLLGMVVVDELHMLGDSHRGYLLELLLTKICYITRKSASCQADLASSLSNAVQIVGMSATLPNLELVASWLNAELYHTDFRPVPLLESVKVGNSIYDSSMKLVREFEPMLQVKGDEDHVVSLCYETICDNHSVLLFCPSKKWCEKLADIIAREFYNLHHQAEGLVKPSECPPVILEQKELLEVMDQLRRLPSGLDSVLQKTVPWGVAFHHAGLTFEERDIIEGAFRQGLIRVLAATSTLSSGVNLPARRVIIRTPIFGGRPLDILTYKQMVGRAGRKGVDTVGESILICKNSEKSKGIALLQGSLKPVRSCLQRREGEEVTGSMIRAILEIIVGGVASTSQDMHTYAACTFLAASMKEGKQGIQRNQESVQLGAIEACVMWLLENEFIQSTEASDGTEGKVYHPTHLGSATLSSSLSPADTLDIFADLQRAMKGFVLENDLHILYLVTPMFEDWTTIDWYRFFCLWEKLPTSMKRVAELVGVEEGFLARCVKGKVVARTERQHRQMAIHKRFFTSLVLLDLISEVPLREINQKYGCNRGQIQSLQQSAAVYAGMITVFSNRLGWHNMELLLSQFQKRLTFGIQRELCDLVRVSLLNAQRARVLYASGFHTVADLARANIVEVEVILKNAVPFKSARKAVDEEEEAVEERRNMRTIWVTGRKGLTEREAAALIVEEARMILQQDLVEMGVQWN
Put plainly: Pol theta ATPase activity, NADH oxidation-coupled enzymatic assay (ATPase NADH coupling: Standard Screening: hPolQ). The test is classed as biochemical. As to conditions: Pol theta (1-899) 5 nM, NADH oxidation-coupled ATPase assay; compounds of Table 3. A digest of the protocol: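 Rates of ATP hydrolysis taken from 60-min A340 traces of NADH oxidation via PK/LDH coupling, then fit four-parameter for IC50, Hill slope and max inhibition. Enzyme (5 nM, 1-899) and compounds preincubated 15 min before ATP 100 μM and 50-thymine ssDNA 300 nM (stock, equal volume added).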
For the compound `COc1nnc(NC(=O)c2cnc(C)cc2-c2ccc(OC(F)F)cc2)s1` [Example 448, 4-[4-(difluoromethoxy)phenyl]-N-(5-methoxy-1,3,4-thiadiazol-2-yl)-6-methylpyridine-3-carboxamide], the IC50 (as a rule, the concentration needed to halve the response being measured) fell in the range of 1000 to 10000 nM.
`Cc1cc(-c2cc(Cl)ncc2OC(F)F)c(C(=O)Nc2nnc(O[C@@H]3CCC[C@H](O)C3)s2)cn1` (single isomer, unassigned) [Example 252] registered an IC50 of at most 200 nM.
Consider `COc1nnc(NC(=O)c2cnc(C)cc2-c2ccc3occc(=O)c3c2)s1` [Example 438, N-(5-methoxy-1,3,4-thiadiazol-2-yl)-6-methyl-4-(4-oxo-4H-chromen-6-yl)nicotinamide], for which the IC50 fell in the range of 1000 to 10000 nM.
Still for that read-out and setting: next, `COc1nnc(NC(=O)c2cnc(C)cc2-c2cccc3c2ccn3C)s1` [Example 482, N-(5-methoxy-1,3,4-thiadiazol-2-yl)-6-methyl-4-(1-methyl-1H-indol-4-yl)pyridine-3-carboxamide]: 1000 to 10000 nM; `COc1cnc(Cl)cc1-c1cc(C)ncc1C(=O)Nc1nnc(O[C@@H]2CCCN([C@H]3CCOC3)C2)s1` [Example 275, 2′-chloro-5′-methoxy-6-methyl-N-(5-(((R)-1-((S)-tetrahydrofuran-3-yl)piperidin-3-yl)oxy)-1,3,4-thiadiazol-2-yl)-[4,4′-bipyridine]-3-carboxamide]: at most 200 nM.
The compound `COc1nnc(NC(=O)c2cnc(C)cc2-c2ccc(N3CCCCC3)cc2)s1` [Example 476, N-(5-methoxy-1,3,4-thiadiazol-2-yl)-6-methyl-4-[4-(piperidin-1-yl)phenyl]pyridine-3-carboxamide] yielded an IC50 of 1000 to 10000 nM.
The same measure, in the same setting: next, `CNC(=O)c1cccc(-c2cc(C)ncc2C(=O)Nc2nnc(OC)s2)c1` [Example 343, N-(5-methoxy-1,3,4-thiadiazol-2-yl)-6-methyl-4-[3-(methylcarbamoyl)phenyl]pyridine-3-carboxamide]: 1000 to 10000 nM.
Turning to `Cc1cc(-c2cc(Cl)ncc2OC(F)F)c(C(=O)Nc2nnc(O[C@@H]3CCC[C@@H](O)C3)s2)cn1` (single isomer, unassigned) [Example 251], the IC50 is at most 200 nM.
Still for that read-out and setting: next, `COc1cnc(Br)cc1-c1cc(C)ncc1C(=O)Nc1nnc(O[C@@H]2CCC[C@H](O)C2)s1` (single isomer, unassigned) [Example 239]: at most 200 nM; `COc1nnc(NC(=O)c2cnc(C)cc2-c2cc(F)cc(F)c2)s1` [Example 337, 4-(3,5-difluorophenyl)-N-(5-methoxy-1,3,4-thiadiazol-2-yl)-6-methylpyridine-3-carboxamide]: 500 to 1000 nM; `COc1cnc(Cl)cc1-c1cc(C)ncc1C(=O)Nc1nnc(OC2CCC23CCOC3)s1` (stereo not drawn) [Example 296, N-(5-((6-oxaspiro[3.4]octan-1-yl)oxy)-1,3,4-thiadiazol-2-yl)-2′-chloro-5′-methoxy-6-methyl-[4,4′-bipyridine]-3-carboxamide]: at most 200 nM.
The same measure, in the same setting: under `COc1nnc(NC(=O)c2cnc(C)cc2-c2cccc(N(C)C)c2)s1` [Example 412, 4-[3-(dimethylamino)phenyl]-N-(5-methoxy-1,3,4-thiadiazol-2-yl)-6-methylpyridine-3-carboxamide] stands 1000 to 10000 nM; under `COc1nnc(NC(=O)c2cnc(C)cc2-c2ccccc2C)s1` [Example 389, N-(5-methoxy-1,3,4-thiadiazol-2-yl)-6-methyl-4-(2-methylphenyl)pyridine-3-carboxamide], 500 to 1000 nM.
Same read-out and setting: under `COc1nnc(NC(=O)c2cnc(C)cc2-c2cc(Cl)c([S@@+]([O-])C3CC3)cc2OC)s1` (single isomer, unassigned) [Example 318] stands at most 200 nM.
In turn, `COc1cnc(Br)cc1-c1cc(C)ncc1C(=O)Nc1nnc(O[C@H]2CCC[C@@H](O)C2)s1` (single isomer, unassigned) [Example 244] displayed a half-maximal inhibitory concentration (IC50) of at most 200 nM.
On to `COc1nnc(NC(=O)c2cnc(C)cc2-c2cccc3nn(C)cc23)s1` [Example 489, N-(5-methoxy-1,3,4-thiadiazol-2-yl)-6-methyl-4-(2-methyl-2H-indazol-4-yl)pyridine-3-carboxamide], for which the IC50 is 1000 to 10000 nM.
The same measure, in the same setting: under `COc1nnc(NC(=O)c2ccc(N)cc2-c2cc(Cl)ncc2OC)s1` [Example 286, 4-amino-2-(2-chloro-5-methoxypyridin-4-yl)-N-(5-methoxy-1,3,4-thiadiazol-2-yl)benzamide] stands at most 200 nM.

The test is the same for the next values; noted with them: Table 4; Pol theta (1-899) 5 nM, ATP, dT50 ssDNA.
`COc1nnc(NC(=O)c2cnc(C)cc2-c2cc(Cl)ncc2OC)s1` [Example 5, 2′-chloro-5′-methoxy-N-(5-methoxy-1,3,4-thiadiazol-2-yl)-6-methyl-(4,4′-bipyridine)-3-carboxamide]: the IC50 is at most 200 nM.
Still for that read-out and setting: next, `COc1nnc(NC(=O)c2cnc(C)cc2-c2cc(C)ncc2C)s1` [Example 56, N-(5-methoxy-1,3,4-thiadiazol-2-yl)-2′,5′,6-trimethyl-(4,4′-bipyridine)-3-carboxamide]: 200 to 500 nM.
As to `COc1cnc(Cl)cc1-c1cc(C)ncc1C(=O)Nc1nnc(OCC(F)(F)F)s1` [Example 29, 2′-chloro-5′-methoxy-6-methyl-N-(5-(2,2,2-trifluoroethoxy)-1,3,4-thiadiazol-2-yl)-(4,4′-bipyridine)-3-carboxamide], the IC50 was at most 200 nM.
Same read-out and setting: under `COc1cnc(Cl)cc1-c1cc(C)ncc1C(=O)Nc1nnc(OC2CCCCC2)s1` [Example 12, 2′-chloro-N-(5-(cyclohexyloxy)-1,3,4-thiadiazol-2-yl)-5′-methoxy-6-methyl-(4,4′-bipyridine)-3-carboxamide] stands at most 200 nM; under `COc1nnc(NC(=O)c2cnc(CO)cc2-c2cc(Cl)ncc2OC)s1` [Example 64, 2′-chloro-6-(hydroxymethyl)-5′-methoxy-N-(5-methoxy-1,3,4-thiadiazol-2-yl)-(4,4′-bipyridine)-3-carboxamide], at most 200 nM.
The same measure, in the same setting: next, `COc1nnc(NC(=O)c2cnc(C)cc2-c2c(F)cccc2Cl)s1` [Example 38, 4-(2-chloro-6-fluorophenyl)-N-(5-methoxy-1,3,4-thiadiazol-2-yl)-6-methylnicotinamide]: at most 200 nM.
Compound `COc1cnc(Cl)cc1-c1cc(C)ncc1C(=O)Nc1nnc(O[C@H]2CC[C@@H](O)C2)s1` [Example 46, 2′-chloro-N-(5-(((1s,3r)-3-hydroxycyclopentyl)oxy)-1,3,4-thiadiazol-2-yl)-5′-methoxy-6-methyl-(4,4′-bipyridine)-3-carboxamide] returned an IC50 of at most 200 nM.

The same test, now with this note: Table 5; Pol theta (1-899) 5 nM, ATP, dT50 ssDNA.
With `COc1cnc(Cl)c(F)c1-c1cc(C)ncc1C(=O)Nc1nnc(O[C@H]2CC[C@@](C)(O)CC2)s1` (single isomer, unassigned) [Example 171, 2′-chloro-3′-fluoro-N-(5-(((1s,4s)-4-hydroxy-4-methylcyclohexyl)oxy)-1,3,4-thiadiazol-2-yl)-5′-methoxy-6-methyl-(4,4′-bipyridine)-3-carboxamide], the IC50 is at most 200 nM.
Take `COc1cnc(Cl)cc1-c1cc(C)ncc1C(=O)Nc1nnc(O[C@@H]2CCC[C@@](C)(O)C2)s1` (single isomer, unassigned) [Example 182]: the IC50 was at most 200 nM.
Same read-out and setting: under `COc1cnc(Cl)cc1-c1cc(C)ncc1C(=O)Nc1nnc(O[C@H]2CC[C@H]([C@H](C)O)CC2)s1` (single isomer, unassigned) [Example 200] stands at most 200 nM; under `COc1cnc(Cl)cc1-c1cc(C)ncc1C(=O)Nc1nnc(O[C@H]2CO[C@@H](C)C2)s1` (single isomer, unassigned) [Example 191], at most 200 nM.
Still for that read-out and setting: under `COc1cnc(Cl)cc1-c1cc(C)ncc1C(=O)Nc1nnc(O[C@@H]2COCC2(F)F)s1` (single isomer, unassigned) [Example 127] stands at most 200 nM; under `COc1cnc(Br)cc1-c1cc(C)ncc1C(=O)Nc1nnc(OC2COC2)s1` [Example 188, 2′-bromo-5′-methoxy-6-methyl-N-(5-(oxetan-3-yloxy)-1,3,4-thiadiazol-2-yl)-(4,4′-bipyridine)-3-carboxamide], at most 200 nM; under `COc1cnc(Cl)c(F)c1-c1cc(C)ncc1C(=O)Nc1nnc(O[C@H]2CC[C@H](OC)CC2)s1` (single isomer, unassigned) [Example 153, 2′-chloro-3′-fluoro-5′-methoxy-N-(5-(((1r,4r)-4-methoxycyclohexyl)oxy)-1,3,4-thiadiazol-2-yl)-6-methyl-(4,4′-bipyridine)-3-carboxamide], at most 200 nM.
Still for that read-out and setting: next, `COc1cnc(Cl)cc1-c1cc(C)ncc1C(=O)Nc1nnc(O[C@H]2CC[C@H](OC)CC2)s1` (single isomer, unassigned) [Example 125, 2′-chloro-5′-methoxy-N-(5-(((1r,4r)-4-methoxycyclohexyl)oxy)-1,3,4-thiadiazol-2-yl)-6-methyl-(4,4′-bipyridine)-3-carboxamide]: at most 200 nM.
Turning to `COc1cnc(Cl)cc1-c1cc(C)ncc1C(=O)Nc1nnc(O[C@H]2CC[C@H](CO)CC2)s1` [Example 168, 2′-chloro-N-(5-(((1r,4r)-4-(hydroxymethyl)cyclohexyl)oxy)-1,3,4-thiadiazol-2-yl)-5′-methoxy-6-methyl-(4,4′-bipyridine)-3-carboxamide], the IC50 is at most 200 nM.
On the same count and under the same terms, next, `COc1cnc(Cl)cc1-c1cc(C)ncc1C(=O)Nc1nnc(O[C@H]2COCC2(F)F)s1` (single isomer, unassigned) [Example 128]: at most 200 nM; `COc1nnc(NC(=O)c2cnc(C)cc2-c2cnn3c2OCC3)s1` [Example 126, 4-(2,3-dihydropyrazolo(5,1-b)oxazol-7-yl)-N-(5-methoxy-1,3,4-thiadiazol-2-yl)-6-methylnicotinamide]: 1000 to 10000 nM.

The test is the same for the next values; noted with them: Table 5; values given as bound; Pol theta (1-899) 5 nM, ATP, dT50 ssDNA.
In the case of `COc1nnc(NC(=O)c2cc(CO)ncc2-c2c(F)cccc2OC)s1` [Example 121, 5-(2-fluoro-6-methoxyphenyl)-2-(hydroxymethyl)-N-(5-methoxy-1,3,4-thiadiazol-2-yl)isonicotinamide], the IC50 was above 10000 nM.
